Data: ChEMBL document CHEMBL1147719, “Two novel aromatic valerenane-type sesquiterpenes from the Chinese green alga Caulerpa taxifolia” (Bioorg Med Chem Lett, 2006)

Molecular target: T1, Tyrosine-protein phosphatase non-receptor type 1 (Homo sapiens, UniProt P18031)
T1 sequence (P18031 whole entry): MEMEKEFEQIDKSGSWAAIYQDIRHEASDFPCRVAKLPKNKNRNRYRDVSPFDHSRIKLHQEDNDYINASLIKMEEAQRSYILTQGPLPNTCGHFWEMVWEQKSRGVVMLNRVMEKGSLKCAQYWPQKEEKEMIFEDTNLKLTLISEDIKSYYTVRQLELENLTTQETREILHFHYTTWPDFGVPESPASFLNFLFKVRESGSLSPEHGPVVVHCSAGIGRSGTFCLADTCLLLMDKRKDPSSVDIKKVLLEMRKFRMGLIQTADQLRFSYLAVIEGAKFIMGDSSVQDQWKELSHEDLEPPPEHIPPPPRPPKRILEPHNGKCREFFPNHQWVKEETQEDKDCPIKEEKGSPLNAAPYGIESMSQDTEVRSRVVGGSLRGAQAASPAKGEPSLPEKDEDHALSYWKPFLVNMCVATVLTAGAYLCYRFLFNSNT
Test: Inhibition of human PTP1B

IC50: 3.77 µM
Compound: COC(=O)/C1=C/c2c([nH]c3ccccc23)/C(C(=O)OC)=C\c2c1[nH]c1ccccc21 [CAULERPIN]
